Assay results taken from patent US20030113379A1, “Biodegradable composite matrix for enhancing angiogenesis and method for producing the same” (INDUSTRIAL TECHNOLOGY RESEARCH INSTITUTE, priority 2001, published 2003).
Entries after “also recorded” stand apart in the source; their conditions may differ.

Tested on: mouse
Test: Angiogenesis in mice after subcutaneous injection of hydrogel composite matrix (HE-stained tissue sections)
Assay type: in vivo
Conditions: mice sacrificed 15 days after subcutaneous injection of the hydrogel; rank order against PBS control
Procedure: S-1-P was dissolved in methanol and the solution was poured into a round bottom flask. S-1-P was then dried and spread onto the inner wall of the flask by decompression distillation. PBS was added into the flask followed by rapid freezing using liquid nitrogen. The mixture was then sonicated under room temperature to melt the S-1-P from the inner wall and form micelles. The resulting S-1-P micelles were mixed with chitin hydrogel and bFGF to give a composite matrix. The composite matrix was introduced into the mouse via subcutaneous injection.
The mice were sacrificed 15 days after injecting the hydrogel. The implanted tissues were obtained, fixed, embedded, sectioned, stained, and observed under a 200 times microscope. The sizes and conditions of the blood vessels of the sections were observed. […] The arrows indicate the blood vessels. FIG. 2 is the average numbers of blood vessels of the tissue sections. It is shown that blood vessel number of the sections is bFGF/S-1-P>bFGF>PBS, which is in consistent with results shown in FIG. 1.

bFGF: protein growth factor (fibroblast growth factor) used alone as the comparison sample
average numbers of blood vessels of the tissue sections (FIG. 2): larger than the PBS sample; also recorded: bFGF>PBS
